According to US20220177484A1, “MACROCYCLES WITH ANTIOXIDANT AND NEUROPROTECTIVE ACTIVITIES” (INSTITUTO BIOMAR, S.A, priority 2019, published 2022):

Key:
[1] = system: cortical primary neurons (from C57BL6/J mice); test: H2O2 production in neurons after excitotoxic NMDA stimulus (Amplex Red); type: cell-based; settings: 100 μM NMDA 10 min, then compound 0.1, 1, 5 μM (FIG. 5)
Protocol: For NMDA receptors activation, neurons at 8 days in vitro were incubated with 100 μM NMDA for 10 minutes. Neurons were then washed and further incubated for 4 hours in culture medium with DMSO only (DMSO empty bar), DMSO and NMDA (DMSO filled bar) and with increasing quantities of GKK1032C, GKK1032, Pyrrocidine A, Pyrrocidine B, CL0661, CL0667 and CL0670. Concentrations of 0.1 μM, 1 μM, 5 μM. *: p-value <0.05 vs. DMSO+NMDA (student's test).
Experiments were performed in […] cortical primary neurons, obtained as was previously described (Herrero-Mendez A. et al., Nat. Cell. Biol. 11:747-752, 2009). After 7 or 8 days in B27-MAO culture, neurons (from C57BL6/J mice) were incubated in the presence of N-methyl-D-aspartate (NMDA, a H2O2 production promoter; 100 μM) for 10 minutes, followed by a PBS washing step and submitted to a 24-hour B27 incubation step in the absence (DMSO) or presence of increasing amounts of GKK1032C, GKK1032, Pyrrocidine B, Pyrrocidine A, CL0661, CL0665, CL0667 and CL0670 (0.1 μM, 1 μM and 5 μM). B27-MAO stands for Neurobasal medium, supplemented with B27 supplement in the absence of antioxidants (minus antioxidants, MAO).
The release of H2O2 was measured using the fluorescent method Amplex© Red hydrogen peroxide/peroxidase assay kit (Invitrogen, catalog number A22188) using a multiwell fluorescence reader (Varioskan, Thermo Scientific).
The data are presented as the mean values±standard deviation of the mean from n=3.

C57BL6/J male mice [2] = test: Stroke size after Middle Cerebral Artery occlusion (tetrazolium chloride); type: in vivo; settings: for protection of the stroke volume caused by the Middle Cerebral Artery occlusion: GKK1032C and CL0670 10 mg/kg intravenously (FIG. 19); for percentage averaged stroke volume: mice treated with GKK1032C and CL0670 10 mg/kg intravenously after MCA occlusion, untreated ischemia ˜48%
Text: FIG. 19 is the graphical representation of the volume of the cerebral stroke of mice submitted to Middle Cerebral Artery occlusion effect (empty bar) and of mice submitted to Middle Cerebral Artery occlusion and administration of Compound I and CL0670 (solid bar). *: p-value<0.05 vs. ischemia (student's test).
Middle Cerebral Artery occlusion involves temporarily or permanently restricting MCA blood flow to the cortex and striatum. The cerebral ischemic model of stroke is commonly used to assess ischemic injury in the brain. Occlusion of the middle cerebral artery (MCA) leads to a reduction of cerebral blood flow in both the striatum and the cortex. It is a highly reproducible model that results in brain damages similar to those occurring in human stroke.
Compounds GKK1032C and CL0670 were administered intravenously at a dose of 10 mg/kg. 11-week old C57BL6/J male mice were divided into 3 groups of 7 mice each: mice submitted to Middle Cerebral Artery occlusion (ischemia), mice submitted to Middle Cerebral Artery occlusion and administration of GKK1032C and CL0670.
All mice were firstly trained in the rotarod for 3 consecutive days. After this period, the mice were put to sleep with sevoflurane and submitted to surgery. Occlusion was performed by maintain the surgical filament occluding the middle cerebral artery for 30 minutes. Once removed, GKK1032C and CL0670 were injected at the jugular vein. 24 hours after reanimation, the animals were submitted to the rotarod test.
To compare the neuroprotective effect caused by GKK1032C and CL0670 to the motor coordination of mice and the cerebral damage caused by the chirurgical procedure, the animals were sacrificed, and the stroke size measured by visual inspection after treatment with tetrazolium chloride. […] The data confirms that GKK1032C and CL0670 are excellent neuroprotector agents against stroke.

[3] = Pharmacokinetics in plasma and brain after intraperitoneal administration; type: in vivo, female C57BL/6 mice; settings: 150 mg/Kg intraperitoneal
Protocol: FIG. 10 represents the concentration of Compound I in plasma and brain of female C57BL/6 mice collected at t=0 min, 5 min, 15 min, 30 min, 1 hour, 4 hours, 10 hours, 24 hours and 48 hours.
The Maximum Tolerated Dose (MTD) and Pharmacokinetics (PK) of compound I were determined after intraperitoneal administration to female C57BL/6 (˜25 g) 9 weeks old mice. The injection comprised a 150 mg/Kg dose of compound I in Creomophor-EtOH-H2O (10:5:85). The concentrations of GKK1032C in plasma and brain were determined at different times per duplicate (pre-dose, 5 min, 15 min, 30 min, 1 h, 4 h, 10 h, 24 h and 48 h) using a previously validated analytical method. […] The highest concentration in the brain is 850 ng/mL at 4 hours after injection and progressively declined until reaching the control levels at 24 hours post-administration.

C57BL6/J male mice [4] = test: Rotarod test under normal conditions; type: in vivo; settings: once-daily 150 mg/kg intraperitoneal for 3 days, normal mice (FIG. 11)
Protocol: FIG. 11 represents the results from the rotarod test to 8 weeks-old C57BL6/J male mice separated in two groups: Control (mice injected with vehicle) and Compound I (mice injected with a once-daily dose of 150 mg/kg of Compound I).
(§1) Experiments were conducted to evaluate if the intraperitoneal administration of Compound I to mice would have any effect in the animal's motor coordination, fear/anxiety and short-term memory behaviour. The motivation for this experiment is to determine if, under normal conditions, the injection of compound I would affect the behaviour of 8 weeks-old C57BL6/J male mice, in vivo. Mice were separated in group I (vehicle injection only) and group II (compound I injection). The mice were injected with a once-daily dose of 150 mg/kg for 3 days. The tests consisted in the rotarod performance test (at day 1, 2, 3 and 4), the open field test (at day 2 and 3) and the novel object recognition test (at day 4 only).

C57BL6/J male mice [5] = test: Novel Object Recognition test under normal conditions; type: in vivo; settings: once-daily 150 mg/kg intraperitoneal for 3 days, test at day 4
Protocol: as §1

Structure (SMILES)	H2O2 production in neuron cells after NMDA [1]	protection of the stroke volume caused by the Middle Cerebral Artery occlusion (C57BL6/J male mice [2])	percentage averaged stroke volume (C57BL6/J male mice [2])	highest concentration in the plasma ([3]; Creomophor-EtOH-H2O (10:5:85), mice (FIG. 10))	crossing of the blood-brain barrier ([3]; mice)	duration of high levels in the brain ([3]; mice)	highest concentration in the brain ([3]; mice)	time at which brain concentration reaches the control levels post-administration ([3]; mice)	time of highest concentration in the brain after injection ([3]; mice)	time of highest concentration in the plasma after injection ([3]; mice)	motor coordination (rotarod) (C57BL6/J male mice [4])	short-term memory (Novel Object Recognition) (C57BL6/J male mice [5])
C=CC1(C)C=C(C)C2C3C(Oc4ccc(cc4)CC4C(=O)NC(O)C4C(=O)C31)C1C(C)CC(C)CC21C (stereo not drawn) [CL0670]	successful in preventing H2O2 from being produced	roughly 18%	39.5%	–	–	–	–	–	–	–	–	–
C=CC1(C)C=C(C)C2C3C(Oc4ccc(cc4)CC4(O)NC(=O)C5(OC45)C(=O)C31)C1C(C)CC(C)CC21C (stereo not drawn) [Compound I]	successful in preventing H2O2 from being produced	roughly 18%	39.5%	30000 ng/mL	successfully crosses the blood-brain barrier	about 18 hours	850 ng/mL	24 h	4 h	4 h	no effect	did not alter
